Laboratory results from PubChem BioAssay AID1963978 (Molecular Pharmacology Branch, DTP, NCI, 2024).

Tested on: 616215-338-R-J1-PDC spheroids with HUVEC/MSC, viability
Test: Anticancer human tumor 616215-338-R-J1-PDC patient-derived colon adenocarcinoma cell line growth inhibition [PI3K]
Settings: for viability, T/C: stronger effect = lower value
Summary of the method: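 Three cell types, namely tumor cells, endothelial cells and mesenchymal stem cells, formed each spheroid. Combinations with four PI3K inhibitors were screened at clinically achievable concentrations decreasing by half-log, and spheroid viability was recorded.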

[1] = curve of first compound, second compound 0.0316 µM
[2] = curve of first compound, second compound 0.1 µM
[3] = curve of first compound, second compound 0.316 µM
[4] = curve of first compound, second compound 1 µM
[5] = curve of first compound, second compound 3.16 µM
[6] = curve of first compound, second compound 10 µM
[7] = second compound 0.0316 µM, first compound 0.0316 µM
[8] = second compound 0.0316 µM, first compound 0.1 µM
[9] = second compound 0.1 µM, first compound 0.0316 µM
[10] = second compound 0.1 µM, first compound 0.1 µM
[11] = second compound 0.316 µM, first compound 0.0316 µM
[12] = second compound 0.316 µM, first compound 0.1 µM
[13] = second compound 1 µM, first compound 0.0316 µM
[14] = second compound 1 µM, first compound 0.1 µM
[15] = second compound 3.16 µM, first compound 0.0316 µM
[16] = second compound 3.16 µM, first compound 0.1 µM
[17] = second compound 10 µM, first compound 0.0316 µM
[18] = second compound 10 µM, first compound 0.1 µM
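Note: spheroids exposed to agents for seven days before the viability read.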

CNC(=O)c1ccc(N2C(=S)N(c3ccc(C#N)c(C(F)(F)F)c3)C(=O)C2(C)C)cc1F + CC(Nc1ncnc2nc[nH]c12)c1cc2cccc(Cl)c2c(=O)n1-c1ccccc1
IC50 [1]: > 10000 nM | IC50 [2]: > 10000 nM | IC50 [3]: > 10000 nM | IC50 [4]: > 10000 nM | IC50 [5]: > 10000 nM | IC50 [6]: > 10000 nM | viability, T/C [7]: 98.5% | viability, T/C [8]: 107% | viability, T/C (second compound 0.0316 µM, first compound 0.316 µM): 109% | viability, T/C (second compound 0.0316 µM, first compound 1 µM): 106% | viability, T/C (second compound 0.0316 µM, first compound 3.16 µM): 104% | viability, T/C (second compound 0.0316 µM, first compound 10 µM): 101% | viability, T/C [9]: 91% | viability, T/C [10]: 98.9% | viability, T/C (second compound 0.1 µM, first compound 0.316 µM): 96% | viability, T/C (second compound 0.1 µM, first compound 1 µM): 97.9% | viability, T/C (second compound 0.1 µM, first compound 3.16 µM): 108% | viability, T/C (second compound 0.1 µM, first compound 10 µM): 114% | viability, T/C [11]: 97.2% | viability, T/C [12]: 97% | viability, T/C (second compound 0.316 µM, first compound 0.316 µM): 105% | viability, T/C (second compound 0.316 µM, first compound 1 µM): 97.1% | viability, T/C (second compound 0.316 µM, first compound 3.16 µM): 110% | viability, T/C (second compound 0.316 µM, first compound 10 µM): 112% | viability, T/C [13]: 113% | viability, T/C [14]: 109% | viability, T/C (second compound 1 µM, first compound 0.316 µM): 111% | viability, T/C (second compound 1 µM, first compound 1 µM): 105% | viability, T/C (second compound 1 µM, first compound 3.16 µM): 111% | viability, T/C (second compound 1 µM, first compound 10 µM): 114% | viability, T/C [15]: 95.6% | viability, T/C [16]: 94.3% | viability, T/C (second compound 3.16 µM, first compound 0.316 µM): 111% | viability, T/C (second compound 3.16 µM, first compound 1 µM): 104% | viability, T/C (second compound 3.16 µM, first compound 3.16 µM): 103% | viability, T/C (second compound 3.16 µM, first compound 10 µM): 106% | viability, T/C [17]: 104% | viability, T/C [18]: 117% | viability, T/C (second compound 10 µM, first compound 0.316 µM): 117% | viability, T/C (second compound 10 µM, first compound 1 µM): 116% | viability, T/C (second compound 10 µM, first compound 3.16 µM): 110% | viability, T/C (second compound 10 µM, first compound 10 µM): 116%

Cn1cnc2c(F)c(Nc3ccc(Br)cc3Cl)c(C(=O)NOCCO)cc21 + CC(Nc1ncnc2nc[nH]c12)c1cc2cccc(Cl)c2c(=O)n1-c1ccccc1
IC50 [1]: 1520 nM | IC50 [2]: 1560 nM | IC50 [3]: 1910 nM | IC50 [4]: 1730 nM | IC50 [5]: 1270 nM | IC50 [6]: 507 nM | viability, T/C (second compound 0.0316 µM, first compound 0.00949 µM): 94.3% | viability, T/C (second compound 0.0316 µM, first compound 0.03 µM): 100% | viability, T/C (second compound 0.0316 µM, first compound 0.0949 µM): 89.7% | viability, T/C (second compound 0.0316 µM, first compound 0.3 µM): 75.8% | viability, T/C (second compound 0.0316 µM, first compound 0.949 µM): 59.9% | viability, T/C (second compound 0.0316 µM, first compound 3 µM): 37.5% | viability, T/C (second compound 0.1 µM, first compound 0.00949 µM): 108% | viability, T/C (second compound 0.1 µM, first compound 0.03 µM): 96.5% | viability, T/C (second compound 0.1 µM, first compound 0.0949 µM): 89% | viability, T/C (second compound 0.1 µM, first compound 0.3 µM): 77.6% | viability, T/C (second compound 0.1 µM, first compound 0.949 µM): 51.8% | viability, T/C (second compound 0.1 µM, first compound 3 µM): 43.8% | viability, T/C (second compound 0.316 µM, first compound 0.00949 µM): 95.2% | viability, T/C (second compound 0.316 µM, first compound 0.03 µM): 90.5% | viability, T/C (second compound 0.316 µM, first compound 0.0949 µM): 86.5% | viability, T/C (second compound 0.316 µM, first compound 0.3 µM): 70.2% | viability, T/C (second compound 0.316 µM, first compound 0.949 µM): 59.6% | viability, T/C (second compound 0.316 µM, first compound 3 µM): 44.4% | viability, T/C (second compound 1 µM, first compound 0.00949 µM): 98.6% | viability, T/C (second compound 1 µM, first compound 0.03 µM): 90.8% | viability, T/C (second compound 1 µM, first compound 0.0949 µM): 87.6% | viability, T/C (second compound 1 µM, first compound 0.3 µM): 84.6% | viability, T/C (second compound 1 µM, first compound 0.949 µM): 63% | viability, T/C (second compound 1 µM, first compound 3 µM): 36.9% | viability, T/C (second compound 3.16 µM, first compound 0.00949 µM): 102% | viability, T/C (second compound 3.16 µM, first compound 0.03 µM): 96.3% | viability, T/C (second compound 3.16 µM, first compound 0.0949 µM): 83.3% | viability, T/C (second compound 3.16 µM, first compound 0.3 µM): 76.5% | viability, T/C (second compound 3.16 µM, first compound 0.949 µM): 55% | viability, T/C (second compound 3.16 µM, first compound 3 µM): 32.5% | viability, T/C (second compound 10 µM, first compound 0.00949 µM): 117% | viability, T/C (second compound 10 µM, first compound 0.03 µM): 99.1% | viability, T/C (second compound 10 µM, first compound 0.0949 µM): 93.3% | viability, T/C (second compound 10 µM, first compound 0.3 µM): 52.5% | viability, T/C (second compound 10 µM, first compound 0.949 µM): 41% | viability, T/C (second compound 10 µM, first compound 3 µM): 6.44%

CC(C)n1nc(-c2ccc3oc(N)nc3c2)c2c(N)ncnc21 + Cc1nc(NC(=O)N2CCCC2C(N)=O)sc1-c1ccnc(C(C)(C)C(F)(F)F)c1
IC50 [1]: > 100 nM | IC50 [2]: > 100 nM | IC50 [3]: > 100 nM | IC50 [4]: > 100 nM | IC50 [5]: > 100 nM | IC50 [6]: 53.2 nM | viability, T/C (second compound 0.0316 µM, first compound 0.000316 µM): 100% | viability, T/C (second compound 0.0316 µM, first compound 0.001 µM): 88.7% | viability, T/C (second compound 0.0316 µM, first compound 0.00316 µM): 93.9% | viability, T/C (second compound 0.0316 µM, first compound 0.01 µM): 97.2% | viability, T/C [7]: 105% | viability, T/C [8]: 93.2% | viability, T/C (second compound 0.1 µM, first compound 0.000316 µM): 98.5% | viability, T/C (second compound 0.1 µM, first compound 0.001 µM): 106% | viability, T/C (second compound 0.1 µM, first compound 0.00316 µM): 96.8% | viability, T/C (second compound 0.1 µM, first compound 0.01 µM): 90.8% | viability, T/C [9]: 114% | viability, T/C [10]: 87.1% | viability, T/C (second compound 0.316 µM, first compound 0.000316 µM): 91.2% | viability, T/C (second compound 0.316 µM, first compound 0.001 µM): 91.2% | viability, T/C (second compound 0.316 µM, first compound 0.00316 µM): 91.4% | viability, T/C (second compound 0.316 µM, first compound 0.01 µM): 96.2% | viability, T/C [11]: 111% | viability, T/C [12]: 82.1% | viability, T/C (second compound 1 µM, first compound 0.000316 µM): 102% | viability, T/C (second compound 1 µM, first compound 0.001 µM): 100% | viability, T/C (second compound 1 µM, first compound 0.00316 µM): 102% | viability, T/C (second compound 1 µM, first compound 0.01 µM): 99.5% | viability, T/C [13]: 106% | viability, T/C [14]: 79.1% | viability, T/C (second compound 3.16 µM, first compound 0.000316 µM): 99.7% | viability, T/C (second compound 3.16 µM, first compound 0.001 µM): 102% | viability, T/C (second compound 3.16 µM, first compound 0.00316 µM): 91% | viability, T/C (second compound 3.16 µM, first compound 0.01 µM): 95.4% | viability, T/C [15]: 83.8% | viability, T/C [16]: 56.7% | viability, T/C (second compound 10 µM, first compound 0.000316 µM): 94.4% | viability, T/C (second compound 10 µM, first compound 0.001 µM): 85.9% | viability, T/C (second compound 10 µM, first compound 0.00316 µM): 86.2% | viability, T/C (second compound 10 µM, first compound 0.01 µM): 80.2% | viability, T/C [17]: 56.7% | viability, T/C [18]: 41.4%

Cc1nc(NC(=O)N2CCCC2C(N)=O)sc1-c1ccnc(C(C)(C)C(F)(F)F)c1 (stereo not drawn)
viability, T/C (compound 0.0316 µM): 97.3% [middle of 8 runs] | viability, T/C (compound 0.1 µM): 102% [middle of 8 runs] | viability, T/C (compound 0.316 µM): 106% [middle of 8 runs] | viability, T/C (compound 1 µM): 108% [middle of 8 runs] | viability, T/C (compound 3.16 µM): 100% [middle of 8 runs] | viability, T/C (compound 10 µM): 99.5% [middle of 8 runs] | IC50 (compound alone, run of 05/08/2023): > 10000 nM
